{"source": "patent EP0786470A1", "about": "“PEPTIDE COMPOUND” (SEIKAGAKU KOGYO KABUSHIKI KAISHA, priority 1993, dated 1997)", "key": {"[1]": {"test_system": "Wistar rats", "details": "for number of spontaneous behavior: caudate nucleus putamen administration", "protocol": "(§1) Wistar rats (250 to 300 g) were anesthetized with pentobarbital (50 mg/kg, i.p.) and their parietal regions were shaved off and the head was respectively fixed on a rat brain fixing apparatus. After incising the scalp, a hole of 1 to 1.2 mm was made in the cranial bones using an electric drill, and a stainless steel guide cannula of 1 to 1.2 mm in diameter and 23 mm in length was inserted into the hole and fixed to the cranial bones with dental cement. As the insertion position of the guide cannula, co-ordinates of tonsillar nucleus (A: -1.3 mm, L: 3.4 mm and V: 8.6 mm from bregma) were selected with reference to the brain illustrations of Paxions and Watson. Rats were reared for 1 week after the operation and then used in the test.\n(§2) Drug-free physiological saline containing 13% ethanol (vehicle) was used as a control in the same manner."}, "[2]": {"test_system": "Wistar rats", "details": "for inhibition of the total number of spontaneous behavior observed within 2 hours after administration of methamphetamine: rat, in vivo; for number of spontaneous behavior: tonsillar nucleus administration, 10 µmol/ml at 2.7 µl/min for 2 minutes, after 30 minutes of methamphetamine 1.0 mg/kg i.p., control about 1,250 counts", "protocol": "as §1, §2"}, "[3]": {"test_system": "male Wistar rats", "test": "Inhibition of (±) Bay K8644-induced spontaneous behavior and rearing, drug administered to caudate nucleus putamen (Test Example 3)", "format": "in vivo, rat", "details": "caudate nucleus putamen administration; for number of spontaneous behavior: induced by (±) Bay K8644 (18.5 µmol/ml), in comparison with the control group (Fig. 5); for inhibition action on number of spontaneous behavior / number of rearing: induced by (±) Bay K8644; for inhibition action on number of spontaneous behavior: compared with PLG (Fig. 5); for number of rearing: compared with PLG (Fig. 6)", "from_the_text": "At the same time, the number of rearing was counted. The term rearing as used herein means an action to stand upright solely with hind legs, which is counted by the naked eye.\nThe number of spontaneous behavior is shown in Fig. 5, and the number of rearing in Fig. 6, both induced by (±) Bay K8644."}, "[4]": {"details": "after 30 minutes of methamphetamine 1.0 mg/kg i.p."}}, "note": "Like-named read-outs stand apart in the source and are kept apart here. Where a SMILES comes first, the peptide text is derived from it. [ ]: non-standard residue; d: D form. The star is where a group is joined. Piv = CC(C)(C)C(=O)*; GABA = NCCCC(=O)O", "data": [{"smiles": "CC(C)C[C@H](NC(=O)[C@@H](CO)NC(=O)C(C)(C)C)C(=O)NCCCC(=O)O", "note": "[PDSLG, Piv-D-Ser-Leu-GABA] (Piv-[dS]-Leu-[GABA]-OH)", "values": [{"measurement": "number of spontaneous behavior", "setting": "[1]; after 75 minutes of methamphetamine 1.0 mg/kg i.p.", "result": "about 300 counts"}, {"measurement": "site selectivity", "setting": "[1]; caudate nucleus putamen versus tonsillar nucleus administration", "result": "stronger action on caudate nucleus putamen"}, {"measurement": "inhibition of the total number of spontaneous behavior observed within 2 hours after administration of methamphetamine", "setting": "[2]", "result": "about 25%"}, {"measurement": "number of spontaneous behavior", "setting": "[2]", "result": "about 820 counts"}, {"measurement": "number of spontaneous behavior", "setting": "[3]", "result": "decreased"}, {"measurement": "inhibition action on number of spontaneous behavior", "setting": "[3]", "result": "stronger than that of PLG"}, {"measurement": "number of rearing", "setting": "[3]", "result": "definitely strong inhibition effect in comparison with PLG"}]}, {"smiles": "CC(C)C[C@H](NC(=O)[C@H](CO)NC(=O)C(C)(C)C)C(=O)NCCCC(=O)O", "note": "[PSLG, Piv-L-Ser-Leu-GABA] (Piv-Ser-Leu-[GABA]-OH)", "values": [{"measurement": "number of spontaneous behavior", "setting": "[1]; [4]", "result": "about 600 counts"}, {"measurement": "inhibition of the total number of spontaneous behavior observed within 2 hours after administration of methamphetamine", "setting": "[2]", "result": "about 25%"}, {"measurement": "number of spontaneous behavior", "setting": "[2]", "result": "about 900 counts"}, {"measurement": "number of spontaneous behavior", "setting": "[3]", "result": "decreased"}, {"measurement": "inhibition action on number of spontaneous behavior", "setting": "[3]", "result": "stronger than that of PLG"}, {"measurement": "number of rearing", "setting": "[3]", "result": "definitely strong inhibition effect in comparison with PLG"}]}, {"smiles": "CC(C)C[C@H](NC(=O)C(C)(C)C)C(=O)NCCCC(=O)O", "note": "[PLG, Piv-Leu-GABA, reference compound]", "values": [{"measurement": "number of spontaneous behavior", "setting": "[1]; 10 µmol/ml at 2.7 µl/min for 2 minutes, after 15 minutes of methamphetamine 1.0 mg/kg i.p.", "result": "about 650 counts"}, {"measurement": "number of spontaneous behavior", "setting": "[1]; [4]", "result": "about 600 counts"}, {"measurement": "number of spontaneous behavior", "setting": "[2]", "result": "about 750 counts"}, {"measurement": "number of spontaneous behavior", "setting": "[3]", "result": "decreased"}]}]}
